How the values were obtained:
[1] = test system: H. pylori GR; set-up: method as in earlier work; details: ref 8 (Lundqvist et al.); cited from earlier work
[2] = set-up: method as in PMID 31876113; details: carboxylic acid form (α-carboxylate protonated by Cys181); cited from earlier work
[3] = target: T1, H. pylori glutamate racemase (GR) (Helicobacter pylori, UniProt Q9ZLT0); experiment: Surface plasmon resonance (SPR) binding to immobilized GR; details: 1:1 Langmuir binding model, absence of substrate D-Glu, 25 °C, 500-7.81 µM dilution series
T1 construct: made in house; host or cells: E. coli BL21 (DE3) pLysS, co-expressed with GroEL/ES
T1 sequence (Q9ZLT0 whole entry): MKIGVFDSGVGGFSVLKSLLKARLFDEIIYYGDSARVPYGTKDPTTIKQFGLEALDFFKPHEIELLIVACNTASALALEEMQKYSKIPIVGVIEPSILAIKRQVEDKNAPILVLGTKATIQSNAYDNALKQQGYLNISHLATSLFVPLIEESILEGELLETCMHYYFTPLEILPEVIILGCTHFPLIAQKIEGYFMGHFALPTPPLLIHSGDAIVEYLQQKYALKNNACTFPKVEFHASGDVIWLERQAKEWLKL
Method: We first evaluated the binding affinity of these compounds to H. pylori GR by Surface Plasmon Resonance (SPR). A combination of amine coupling and HisCapture was used to immobilize the protein on the surface of the SPR biosensor. Compounds were injected onto the sensor in increasing concentrations using a dilution series ranging from 500 µM to 7.81 µM (7 concentrations).
Experiments were performed using a SensiQ Pioneer SPR. The biosensor chip was first equilibrated with SPR running buffer (50 mM Tris-HCl, 100 mM NaCl, TCEP, 1% v/v TWEEN, pH 8.0), then the surface of the biosensor chip was seasoned by injecting 200 μL 50 mM NaOH at 40 μL/min, 200 μL 0.1% v/v SDS at 40 μL/min, and 200 μL 10 mM HCl at 40 μL/min in the test and reference biosensor chip flow channels. This process of seasoning was repeated twice. All buffers and solutions were filter sterilized with 0.22-μm buffer filters before using on the SPR instrument. After seasoning, the lines were primed three times with SPR buffer. […]
H. pylori GR was immobilized to the biosensor using a HisCapture couple method detailed above. […] All sensograms were analyzed using the program Qdat (2.6.3.0) and it fitted to a model of simple binding of 1:1 Langmuir binding model for all virtual hits. […]

[4] = target: T1, H. pylori glutamate racemase (GR); experiment: Coupled-enzyme assay (L-glutamate dehydrogenase/diaphorase) of D- to L-glutamate racemization; type: biochemical; details: 1.25 mM D-Glu, 2 µM GR, 50 mM TRIS pH 8, 5% DMSO; mean ± SE n = 3 for NP-020560 and Compound A, other hits single repeat
Method: The D- to L-glutamate racemization activities of H. pylori GR was assayed through a previously established coupled-enzyme method, utilizing L-glutamate dehydrogenase and diaphorase[40]. […] The assay consists of 1.25 mM D-Glu, 2.51 mM ADP, 5 mM NAD, 0.506 mM INT, 5 Units of L-GDH, 0.4 units of diaphorase and 2 µM GR in 50 mM TRIS, pH = 8. Compound stocks solutions of varying concentrations (100 µM–50 mM) were made in DMSO and introduced in the assay vials. The final DMSO concentration after addition of compounds in the assay was 5% v/v. […] Absorption for the reduced iodonitrotetrazolium was collected by measuring absorbance at 500 nm at 1 min interval for 60 min on Cary 300 UV-VIS Spectrophotometer from Varian (Palo Alto, CA). Absorbance for each compound concentration at every time point were normalized to absorbance for blank, followed by calculating slopes for each concentration. The calculated slopes with the respective log (inhibitor concertation) were fitted to log(inhibitor) vs response (three parameters) model within ‘Nonlinear Regression-Dose Response Inhibition’ in GraphPad Prism version 8.4.3. The program provides output as IC50 and LogIC50 along with respective standard errors, and for ease of expression, we report inhibition data as IC50 (mean ± SE).

CC(C)Cn1c(=O)n(C)c(=O)c2c(-c3ccncc3)n(Cc3cccc4ccccc34)nc21 [Compound A]
IC50 [1]: 5 µM

N[C@H](CCC(=O)O)C(=O)O [D-Glu, D-glutamate]
pKa of α-carbon of D-Glu substrate [2]: 14.4

Cc1cc2c(c(-c3c(O)c(C)cc4c3C(=O)c3c(O)cc(O)cc3C4=O)c1O)C(=O)c1c(O)cc(O)cc1C2=O [NP-020560]
Kd [3]: 54.7 ± 0.3 µM
IC50 [4]: 6.6 ± 3.1 µM

Source: publication PMC9169614, “Decrypting a cryptic allosteric pocket in H. pylori glutamate racemase” (Communications Chemistry, 2021)
